Experimental data: patent publication US5219874A, “Heterocyclic acids” (Imperial Chemical Industries PLC, priority 1991, dated 1993)

Columns and labels:
TXA2 synthase = target: T1, TXA2 synthase (Homo sapiens, UniProt P24557); experiment: test (e): TXA2 synthase inhibition in human platelet microsomal preparation; type: biochemical; conditions: [1-^14 C]arachidonic acid
T1 construct: using a human platelet microsomal TXA2 synthase preparation; from tissue; host or cells: human platelet microsomes
T1 sequence (P24557 1-533): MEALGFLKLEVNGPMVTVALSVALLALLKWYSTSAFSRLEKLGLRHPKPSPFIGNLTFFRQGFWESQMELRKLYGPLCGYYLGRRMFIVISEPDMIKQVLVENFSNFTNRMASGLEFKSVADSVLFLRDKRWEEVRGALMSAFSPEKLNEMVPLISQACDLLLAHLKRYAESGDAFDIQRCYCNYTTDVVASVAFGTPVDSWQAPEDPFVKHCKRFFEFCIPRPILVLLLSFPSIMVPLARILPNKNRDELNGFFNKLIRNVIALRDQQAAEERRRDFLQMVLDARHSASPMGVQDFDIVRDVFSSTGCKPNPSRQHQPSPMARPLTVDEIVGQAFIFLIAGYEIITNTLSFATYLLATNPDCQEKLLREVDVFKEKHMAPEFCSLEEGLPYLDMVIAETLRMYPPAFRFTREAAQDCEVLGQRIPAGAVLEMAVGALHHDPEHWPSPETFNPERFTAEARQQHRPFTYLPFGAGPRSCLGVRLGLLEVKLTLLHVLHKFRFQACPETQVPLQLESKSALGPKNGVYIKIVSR

[1] = target: T2, U46619 stimulated platelet aggregation (Homo sapiens, UniProt P21731); experiment: test (b): blood platelet aggregation test, TXA2 antagonism against U46619; type: cell-based; conditions: human platelet-rich plasma; agonist U46619; read-out: pA2, test (b) (converted)
T2 construct: aggregating human, citrated, platelet-rich plasma; endogenous in cells; host or cells: human platelets in citrated platelet-rich plasma
T2 sequence (P21731 1-343): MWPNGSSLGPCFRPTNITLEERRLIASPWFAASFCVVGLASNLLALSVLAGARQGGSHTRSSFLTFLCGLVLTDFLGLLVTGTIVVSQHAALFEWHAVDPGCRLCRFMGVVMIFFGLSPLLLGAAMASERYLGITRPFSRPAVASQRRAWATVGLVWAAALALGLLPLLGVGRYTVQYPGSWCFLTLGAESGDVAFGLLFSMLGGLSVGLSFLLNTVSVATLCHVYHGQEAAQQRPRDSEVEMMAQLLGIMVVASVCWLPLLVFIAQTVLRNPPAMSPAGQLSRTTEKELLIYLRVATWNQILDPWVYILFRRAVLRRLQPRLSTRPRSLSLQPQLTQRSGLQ
Description: (b) a blood platelet aggregation test based on that described by Born (Nature, 1962, 194, 927-929) and involving:
(i) aggregating human, citrated, platelet-rich plasma by addition of the TXA2 mimetic agent U46619 so that a dose-response curve is generated;
(ii) generating a dose-response curve for U46619 stimulated platelet aggregation in the presence of increasing amounts of test compound (generally in the range 10^-5 M to 10^-10 M); and
(iii) calculating a pA2 value indicating potency of TXA2 antagonism for the test compound, averaged over several concentrations, from the calculated 50% response value for U46619 aggregation in the presence and absence of test compound; or […]

prostacyclin synthase = target: T3, prostacyclin synthase (Homo sapiens, UniProt Q16647); experiment: test (g): prostacyclin synthase inhibition in cultured human endothelial cells (6-oxoPGF1a radioimmunoassay); type: cell-based
T3 construct: obtaining cultured human endothelial cells from unbilical vein; endogenous in cells; host or cells: cultured human umbilical vein endothelial cells
T3 sequence (Q16647 1-500): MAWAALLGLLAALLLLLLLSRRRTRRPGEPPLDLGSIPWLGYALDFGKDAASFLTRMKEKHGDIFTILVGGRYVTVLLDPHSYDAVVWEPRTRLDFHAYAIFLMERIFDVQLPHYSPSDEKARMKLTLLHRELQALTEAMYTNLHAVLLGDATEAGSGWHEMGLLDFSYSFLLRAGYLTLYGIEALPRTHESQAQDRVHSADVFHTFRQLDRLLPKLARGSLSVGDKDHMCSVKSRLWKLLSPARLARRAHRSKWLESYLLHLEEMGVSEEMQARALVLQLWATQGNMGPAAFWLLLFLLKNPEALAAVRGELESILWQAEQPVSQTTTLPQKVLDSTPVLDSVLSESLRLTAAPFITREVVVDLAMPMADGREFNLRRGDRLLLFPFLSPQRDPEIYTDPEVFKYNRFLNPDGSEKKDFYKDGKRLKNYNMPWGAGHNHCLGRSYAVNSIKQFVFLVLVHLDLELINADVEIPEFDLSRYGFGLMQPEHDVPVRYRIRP
Protocol: The growth medium is aspirated from the wells and the endothelial cell monolayers are washed twice with alquots of medium (1 ml, Earls 199 medium) containing vehicle or compound. The monolayers are first incubated with medium containing vehicle or compound for 30 minutes at 37° C. Arachidonic acid (10 micro M) is added to the medium and the monolayers are incubated for a further 2 hours with a fresh aliquot of medium. The incubation is terminated by aspiration of the medium into indomethacin (1 micro M). The sample is stored at -20° C. and radioimmunoassay for the stable metabolite 6-oxoPGF1a is performed. By comparison of the amount of 6-oxoPGF1a present in a sample incubated in the presence of compound to one incubated in the absence of compound, the prostacyclin synthase inhibitory properties of the compound may be assessed.

Which IC50 (TXA2 synthase) does the source give for `Cc1ccc(OC(C)(C)[C@H]2OC[C@@H](C/C=C\CCC(=O)O)[C@@H](c3cncs3)O2)c([N+](=O)[O-])c1` [Example 2] here?
Its IC50 is 16 nM.

What about the Kb [1] of the same compound?
Its Kb is 7.76 nM.

And the “prostacyclin inhibitory properties, test (g)” value (prostacyclin synthase; IC50 greater than 100 micro M deemed no significant inhibition)?
Its value is “no significant prostacyclin inhibitory properties”.

And the IC50 (prostacyclin synthase; human endothelial cells from umbilical vein, unit inferred)?
The IC50 was 211 µM.
